Patent publication US20120004285A1, “ERBB-3 (HER3)-SELECTIVE COMBINATION THERAPY” (ENZON PHARMACEUTICALS, INC., priority 2008, published 2012)
Oligonucleotides are written 5' to 3', each unit as a sugar letter and its base; * is a phosphorothioate linkage, no mark a phosphodiester; rarer units and linkages stand in square brackets, end groups in braces. Plain capitals give the bases only. l = locked nucleic acid (LNA); [5mC] = 5-methylcytosine; d = 2'-deoxy (DNA)

Key:
Format in all cases: cell-based, human
[1] = system: ErbB3 mRNA; assay: ErbB3 mRNA level by qRT-PCR in 15PC3 cells; conditions: ON180 alone, FIG. 3C
Protocol: (§1) The cells were treated with either ON180 or an LNA-containing oligonucleotide having a scrambled base sequence as set forth in SEQ ID NO: 236 (hereinafter referred to as “ONCONT”) using the cationic liposome formulation Lipofectamine™-2000 (Invitrogen™) as transfection vehicle. Cells were seeded in 6-well plates (NUNC™) and treated when 50-60% confluent. The transfection of cells by ON180 was performed as described by the manufacturer using serum-free OptiMEM® (Gibco™) and 5 μg/ml Lipofectamine™-2000. ONCONT served as a negative control. The treated cells were incubated at 37° C. for 4 hours and then washed with OptiMEM®, after which regular serum-containing medium was added.
(§2) The treated cells were then subjected to proliferation assay by MTS and ErbB3 mRNA quantitation by qRT-PCR, respectively (see below). Each experiment was performed at least two times.
(§3) Total RNA was extracted from the treated cells as described above, using Qiagen RNeasy Plus Mini Kit (Cat# 74134). One-step qRT-PCR was used to examine ErbB3 mRNA levels in the cells by using the QuantiTect Probe RT-PCR kit (Cat#: 204443; Qiagen) according to the manufacturer's instructions. The sequences for the primers and probes were as follows: […]
(§4) The qRT-PCR was performed on the Applied Biosystems 7500 Fast Real-Time PCR System using 120 ng of total RNA sample. GAPDH mRNA served as an internal control.

[2] = system: ErbB3 mRNA; assay: ErbB3 mRNA level by qRT-PCR in SKBR3 cells; conditions: ON180 alone, FIG. 5C
Protocol: as §1, §2, §3, §4

[3] = system: A549 cells; assay: Cell proliferation assay (MTS), A549; conditions: FIG. 1A
Protocol: (§5) Cells were cultured in the medium as described below and maintained at 37° C. at 95% humidity and 5% CO2. Cells were routinely passaged 2-3 times weekly.
(§6) 15PC-3 (Santaris Pharma): The human prostate cancer cell line 15PC-3 was cultured in DMEM (ATCC)+10% fetal bovine serum (FBS)+2 mM Glutamax™ I+gentamicin (25 μg/ml). A549 (ATCC): The human lung cancer cell line A549 was cultured in F12K Medium (ATCC)+10% FBS+2 mM Glutamax™ I+Penicillin (100 u/ml)/Streptomycin (100 μg/ml). DU145 (ATCC): The human prostate cancer cell line DU145 was cultured in Eagle's Minimum Essential Medium (ATCC)+10% FBS+2 mM Glutamax™ I+Penicillin (100 u/ml)/Streptomycin (100 μg/ml). […]
(§7) . The treated cells were then subjected to proliferation assay by MTS and ErbB3 mRNA quantitation by qRT-PCR, respectively (see below). […]
(§8) The proliferation assay was carried out by using CellTiter 96® Aqueous One solution reagent (Promega, Cat# 358B) following the manufacturer's instructions. […] The absorbance was measured at […] with a reference of 650 nm using an ELISA reader (Molecular Devices). The background for the assay was measured from wells containing only medium and was subtracted from the signal from the wells containing cells. The absorbance at 490 nm (OD490 nm) is proportional to the viable cell number in culture.

[4] = system: ErbB3 mRNA; assay: ErbB3 mRNA level by qRT-PCR in A549 cells; conditions: ON180 alone, FIG. 1C, read-out: expression of ErbB3 mRNA IC50
Protocol: as §1, §2, §3, §4

[5] = system: H1993 cells; assay: Cell proliferation assay (MTS), H1993; conditions: ON180 alone, Lipofectamine-2000 transfection, FIG. 2A, 2B, read-out: cell growth IC50
Protocol: (§9) Cells were routinely passaged 2-3 times weekly.
(§10) 15PC-3 (Santaris Pharma): The human prostate cancer cell line 15PC-3 was cultured in DMEM (ATCC)+10% fetal bovine serum (FBS)+2 mM Glutamax™ I+gentamicin (25 μg/ml). A549 (ATCC): The human lung cancer cell line A549 was cultured in F12K Medium (ATCC)+10% FBS+2 mM Glutamax™ I+Penicillin (100 u/ml)/Streptomycin (100 μg/ml). DU145 (ATCC): The human prostate cancer cell line DU145 was cultured in Eagle's Minimum Essential Medium (ATCC)+10% FBS+2 mM Glutamax™ I+Penicillin (100 u/ml)/Streptomycin (100 μg/ml). A431 (ATCC): The human epidermoid cancer cell line A431 was cultured in DMEM (ATCC)+10% fetal bovine serum (FBS)+2 mM Glutamax™ I+Penicillin (100 u/ml)/Streptomycin (100 μg/ml). SKBR-3 (ATCC): The human breast cancer cell line SKBR3 was cultured in McCoy's 5A Medium. Modified (ATCC)+10% FBS+2 mM Glutamax™ I+Penicillin (100 u/ml)/Streptomycin (100 μg/ml).
(§11) Cells were seeded in 6-well plates (NUNC™) and treated when 50-60% confluent. The transfection of cells by ON180 was performed as described by the manufacturer using serum-free OptiMEM® (Gibco™) and 5 μg/ml Lipofectamine™-2000. ONCONT served as a negative control. The treated cells were incubated at 37° C. for 4 hours and then washed with OptiMEM®, after which regular serum-containing medium was added.

[6] = system: ErbB3 mRNA; assay: ErbB3 mRNA level by qRT-PCR in A431 cells; conditions: ON180 alone, FIG. 6C
Protocol: as §1, §2, §3, §4

[7] = system: ErbB3 mRNA; assay: ErbB3 mRNA level by qRT-PCR in DU145 cells; conditions: ON180 alone, FIG. 4C
Protocol: as §1, §2, §3, §4

[8] = system: ErbB3 mRNA; assay: ErbB3 mRNA level by qRT-PCR in H1993 cells; conditions: ON180 alone, FIG. 2C
Protocol: as §1, §2, §3, §4

[9] = system: A431 cells; assay: Cell proliferation assay (MTS), A431; conditions: ON180 alone, Lipofectamine-2000 transfection, FIG. 6A, 6B, read-out: cell growth IC50
Protocol: as §9, §10, §11

[10] = system: SKBR3 cells; assay: Cell proliferation assay (MTS), SKBR3; conditions: FIG. 5A
Protocol: as §5, §6, §7, §8

[11] = system: 15PC3 cells; assay: Cell proliferation assay (MTS), 15PC3; conditions: FIG. 3A
Protocol: as §5, §6, §7, §8

[12] = system: DU145 cells; assay: Cell proliferation assay (MTS), DU145; conditions: FIG. 4A
Protocol: as §5, §6, §7, §8

| Compound | ErbB3 mRNA [1] | expression of ErbB3 mRNA [2] | IC50 ([3]; ON180 alone, Lipofectamine-2000 transfection, 1B, read-out: cell growth IC50) | IC50 [4] | IC50 [5] | ErbB3 mRNA [6] | expression of ErbB3 mRNA [7] | expression of ErbB3 mRNA [8] | IC50 [9] | IC50 ([10]; ON180 alone, Lipofectamine-2000 transfection, 5B, read-out: cell growth IC50) | IC50 ([11]; ON180 alone, Lipofectamine-2000 transfection, 3B, read-out: cell growth IC50) | IC50 ([12]; ON180 alone, Lipofectamine-2000 transfection, 4B, read-out: cell growth IC50) | effect of gefitinib alone on proliferation ([3]; gefitinib 40 μM, 48 hours) | sensitivity of cells to gefitinib ([10]; gefitinib alone) | effect of gefitinib on proliferation ([11]; gefitinib 20 μM, 48 hours) | effect of gefitinib on proliferation ([12]; gefitinib 40 μM, 48 hours) |
| --- | --- | --- | --- | --- | --- | --- | --- | --- | --- | --- | --- | --- | --- | --- | --- | --- |
| 5′-TsAsGscscstsgstscsascststs^MeCsTs^MeC-3′ (lT*lA*lG*dC*dC*dT*dG*dT*dC*dA*dC*dT*dT*l[5mC]*lT*l[5mC]) [ON180] | potently inhibited | effectively inhibited | < 5 nM | < 2 nM | 1 nM | effectively inhibited | effectively inhibited | potently inhibited | < 1 nM | < 5 nM | < 2 nM | < 5 nM | – | – | – | – |
| COc1cc2ncnc(Nc3ccc(F)c(Cl)c3)c2cc1OCCCN1CCOCC1 [gefitinib, reference compound] | – | – | – | – | – | – | – | – | – | – | – | – | did not affect proliferation | sensitive | did not affect proliferation | did not affect proliferation |
